Laboratory results as given in patent US6313104A, “Organoprotective solutions” (Abbott Laboratories, priority 1999, dated 2001).
Entries after “also recorded” stand apart in the source; their conditions may differ.

Assays:
MHC class II [1] = assay: IFN-γ-induced MHC class II expression on PTEC, flow cytometry; assay type: cell-based
Experimental: (§1) Proximal tubular epithelial cells were cultured according to the methods described by Detrisac et al. (25). In short: PTEC were grown on tissue culture flasks that had been coated with collagen I (Sigma St. Louis Mo.) and Foetel Calf Serum (FCS, from Gibco BRL). The culture medium consisted of Dulbeco's eagle's medium and Ham's medium (both from Gibco BRL) in a 1:1 ratio, supplemented with insulin ([…]), transferrin (5 μg/ml), selenium (5 ng/ml), hydrocortisone (36 ng/ml), triiodothyronine (4 pg/ml) epidermal growth factor (10 ng/ml), and penicillin/streptomycin (5 IE/ml, 5 μg/ml) (all from Sigma). The cell lines were acquired from multiple sources including biopsy tissue pretransplant, allografts unsuitable for transplantation and from grossly normal surgical nephrectomy specimens. Experiments were performed using cells from passages one to four. PTEC were characterized by positive staining for the epithelial membrane antigen (EMA, Dako Glostrup Denmark) and the adenosinedeaminase binding protein (kindly provided by Dr. Dinjens, University Hospital Maastricht, the Netherlands).
(§2) Confluent monolayers of PTEC or HUVEC were trypsinized and seeded in 24-well plates. Upon confluency the cells were stimulated with IFN-γ (Sigma, St. Louis Mo.) for […] in the presence or absence various concentrations of heparinoids in various Heparin (Heparin-Braun®) was purchased from Braun Melsungen (Melsungen, Germany), low molecular weight heparin (Fragmin® P) from Pfrimmer Kabi (Erlangen, Germany), and modified low molecular weight heparins (Knoll AG Ludwigshafen, Germany).
(§3) In some experiments the culture medium was supplemented with sodium chlorate in order to inhibit sulfation of cellbound HSPG. Chlorate was used in concentrations between 50 to 150 mM for 24 hours before addition of IFN-γ and was present during the stimulation period. Sodium chloride was used as osmolarity control. Cultured cells were recovered by brief treatment with trypsin-EDTA for flow cytometry analysis.
(§4) Cells were pooled, divided into two tubes and washed. Isotype matched irrelevant antibodies conjugated to RPE and FITC (from Dako, Glostrup, Denmark) and Cy-5 (from Dianowa, Hamburg, Germany) were added to the first tube which was used as negative control for the FACS settings. Cells from the second tube were labelled with antibodies against MHC class I (RPE-conjugated, W6, 32, Dako), MHC class II (Cy-5-conjugated, CR3/43, Dianova) and ICAM 1 (FITC-conjugated, Dianova) in concentrations according to the instructions of the manufacturer. After incubation for 30 min at 4° C. the cells were washed and analysed by flow cytometry (FACScan, Becton Dickinson); a minimum of 10000 event were analysed. The results are expressed as mean fluorescence intensity (MFI).

MHC class I [2] = assay: IFN-γ-induced MHC class I expression on PTEC, flow cytometry; assay type: cell-based
Experimental: as §1, §2, §3, §4

ICAM-1 [3] = assay: IFN-γ-induced ICAM-1 expression on PTEC, flow cytometry; assay type: cell-based
Experimental: as §1, §2, §3, §4

^125 I-IFN-γ = assay: Dotblot analysis: binding of 125I-IFN-γ to GAG on nitrocellulose; details: 1 μl of 1 mg/ml on nitrocellulose, 1 hour at 4° C.
Experimental: Small strips of nitrocellulose membranes were prepared and 1 μl of heparin, fragmin and the carious GAGS (all in a concentration of 1 mg/ml) were applied onto the strip. After air drying, the strips were fixed in 1% glutaraldehyde +0.5% cetylpyridinium chloride to prevent GAG loss and washed in Tris buffer. The non-occupied protein binding sites were blocked with 5% BSA in PBS for 30 min at 37° C. The strips were subsequently incubated with ^125 I IFN-γ for 1 hour at 4° C. in the presence or absence of heparin. Hereafter the strips were extensively washed with Tris buffer and exposed to a Kodak film.

MHC class I [4] = assay: IFN-γ-induced MHC class I expression on HUVEC, flow cytometry; assay type: cell-based, Human; details: for upregulation of MHC class I by IFN-γ: HUVEC, 72 hours
Experimental: (§5) Human umbilical vein endothelial cells were prepared from fresh umbilical cord using the methods described by Jaffe et al (26). Briefly, endothelial cells were isolated from umbilical veins by digestion with collagenase V (Sigma, St. Louis Mo.) for 20 minutes at 37° C. Thereafter the vein was flushes with sterile medium to collect endothelial cells. The culture medium consisted of Medium 199 (Gibco BRL) supplemented with 1% FCS, Endothelial Cell Growth Factor and antibiotics (penicillin-streptomycin). The cells were cultured in 25 cm^2 flasks that had been coated with 1% gelatine (Sigma, St. Louis Mo.).
(§6) All experiments were performed with cells from passage three to six. HUVEC were characterized on the basis of positive staining for factor VIII-related antigen (Dako, High Wycombe, UK) and the endothelial marker EN4 (CD31).
as §2, §4

ICAM-1 [5] = assay: IFN-γ-induced ICAM-1 expression on HUVEC, flow cytometry; assay type: cell-based, Human; details: for upregulation of ICAM-1 by IFN-γ: HUVEC, 72 hours
Experimental: as §5, §6, §2, §4

MHC class II [6] = assay: IFN-γ-induced MHC class II expression on HUVEC, flow cytometry; assay type: cell-based, Human; details: for induction of MHC class II by IFN-γ: HUVEC, 72 hours
Experimental: as §5, §6, §2, §4

[7] = 50 ng/ml of IFN-γ, 72 hours, no GAG
[8] = PTEC, 150 mM NaClO3 from one day before and during stimulation, IFN-γ 0 to 10 ng/ml, 72 hours
[9] = 10 ng/ml IFN-γ, test substance 3 mg/ml
[10] = 100 ng/ml IFN-γ, heparin 0.03 to 3 mg/ml
[11] = PTEC, 10 ng/ml IFN-γ, 72 hours, test substance 0.03 mg/ml
[12] = PTEC, 10 ng/ml IFN-γ, 72 hours, test substance 3 mg/ml

With “IFN-γ: IFN-γ (Sigma), stimulus for MHC and ICAM-1 expression” the “MHC class II expression on PTEC” value (MHC class II [1]; [7]) was “induced”, the “MHC class I expression on PTEC” value (MHC class I [2]; [7]) was “upregulated” and the “ICAM-1 expression on PTEC” value (ICAM-1 [3]; [7]) was “upregulated”.
In the case of [Na+].[O-][Cl+2]([O-])[O-] [NaClO3, sodium chlorate], the “modulation of MHC class II expression by IFN-γ in comparison to NaCl treated cultures” value (MHC class II [1]; [8]) was “significantly reduced”, the “modulation of MHC class I expression by IFN-γ in comparison to NaCl treated cultures” value (MHC class I [2]; [8]) was “significantly reduced” and the “modulation of ICAM-1 expression by IFN-γ in comparison to NaCl treated cultures” value (ICAM-1 [3]; [8]) was “significantly reduced”.
heparin was tested, and the “binding of 125I-IFN-γ with coincubation of a 3000 fold excess of fluidphase heparin” value (^125 I-IFN-γ) was “strongly reduced”, the “binding of 125I-IFN-γ” value (^125 I-IFN-γ; absence of fluidphase heparin) was “can bind” and the “upregulation of MHC class I by IFN-γ” value (MHC class I [4]; [9]) was “able to inhibit”. For the same compound, the “upregulation of MHC class I by IFN-γ” value (MHC class I [4]; [10]) was “completely abolished”, the “MHC class I expression in the absence of IFN-γ” value (MHC class I [4]; unstimulated HUVEC) was “no influence” and the “MHC class II expression after IFN-γ stimulation” value (MHC class II [1]; [11]) was “did not significantly inhibit”. For the same compound, the “induction of MHC class II by IFN-γ” value (MHC class II [1]; [12]) was “able to inhibit”, the “induction of MHC class II by IFN-γ” value (MHC class II [1]; PTEC, 100 ng/ml IFN-γ) was “able to inhibit” and the “MHC class I expression after IFN-γ stimulation” value (MHC class I [2]; [11]) was “did not significantly inhibit”. For the same compound, the “upregulation of MHC class I by IFN-γ” value (MHC class I [2]; [12]) was “only a marginal influence; also recorded: able to inhibit”, the “upregulation of MHC class I by IFN-γ” value (MHC class I [2]; PTEC, 100 ng/ml IFN-γ) was “not influenced” and the “upregulation of ICAM-1 by IFN-γ” value (ICAM-1 [5]; [9]) was “able to inhibit”. The “upregulation of ICAM-1 by IFN-γ” value (ICAM-1 [5]; [10]) was “completely abolished”, the “ICAM-1 expression in the absence of IFN-γ” value (ICAM-1 [5]; unstimulated HUVEC) was “no influence” and the “upregulation of ICAM-1 by IFN-γ” value (ICAM-1 [3]; [11]) was “significantly inhibited”. For the same compound, the “upregulation of ICAM-1 by IFN-γ” value (ICAM-1 [3]; [12]) was “able to inhibit”, the “upregulation of ICAM-1 by IFN-γ” value (ICAM-1 [3]; PTEC, 100 ng/ml IFN-γ) was “able to inhibit” and the “induction of MHC class II by IFN-γ” value (MHC class II [6]; [9]) was “able to inhibit”. For the same compound, the “induction of MHC class II by IFN-γ” value (MHC class II [6]; [10]) was “able to inhibit” and the “MHC class II expression in the absence of IFN-γ” value (MHC class II [6]; unstimulated HUVEC) was “no influence”.
